We go through 16 compounds from patent publication US8802700B2 (Vertex Pharmaceuticals Incorporated, priority 2010, dated 2014).

As usually defined, the EC50 is the midpoint of the concentration-response curve.

The first assay deals with T1, ΔF508-CFTR (Homo sapiens, UniProt P13569, DEL508-508).
T1 construct: expressed in transfected cells
T1 sequence (P13569 with tags, fused parts or gaps DEL508-508): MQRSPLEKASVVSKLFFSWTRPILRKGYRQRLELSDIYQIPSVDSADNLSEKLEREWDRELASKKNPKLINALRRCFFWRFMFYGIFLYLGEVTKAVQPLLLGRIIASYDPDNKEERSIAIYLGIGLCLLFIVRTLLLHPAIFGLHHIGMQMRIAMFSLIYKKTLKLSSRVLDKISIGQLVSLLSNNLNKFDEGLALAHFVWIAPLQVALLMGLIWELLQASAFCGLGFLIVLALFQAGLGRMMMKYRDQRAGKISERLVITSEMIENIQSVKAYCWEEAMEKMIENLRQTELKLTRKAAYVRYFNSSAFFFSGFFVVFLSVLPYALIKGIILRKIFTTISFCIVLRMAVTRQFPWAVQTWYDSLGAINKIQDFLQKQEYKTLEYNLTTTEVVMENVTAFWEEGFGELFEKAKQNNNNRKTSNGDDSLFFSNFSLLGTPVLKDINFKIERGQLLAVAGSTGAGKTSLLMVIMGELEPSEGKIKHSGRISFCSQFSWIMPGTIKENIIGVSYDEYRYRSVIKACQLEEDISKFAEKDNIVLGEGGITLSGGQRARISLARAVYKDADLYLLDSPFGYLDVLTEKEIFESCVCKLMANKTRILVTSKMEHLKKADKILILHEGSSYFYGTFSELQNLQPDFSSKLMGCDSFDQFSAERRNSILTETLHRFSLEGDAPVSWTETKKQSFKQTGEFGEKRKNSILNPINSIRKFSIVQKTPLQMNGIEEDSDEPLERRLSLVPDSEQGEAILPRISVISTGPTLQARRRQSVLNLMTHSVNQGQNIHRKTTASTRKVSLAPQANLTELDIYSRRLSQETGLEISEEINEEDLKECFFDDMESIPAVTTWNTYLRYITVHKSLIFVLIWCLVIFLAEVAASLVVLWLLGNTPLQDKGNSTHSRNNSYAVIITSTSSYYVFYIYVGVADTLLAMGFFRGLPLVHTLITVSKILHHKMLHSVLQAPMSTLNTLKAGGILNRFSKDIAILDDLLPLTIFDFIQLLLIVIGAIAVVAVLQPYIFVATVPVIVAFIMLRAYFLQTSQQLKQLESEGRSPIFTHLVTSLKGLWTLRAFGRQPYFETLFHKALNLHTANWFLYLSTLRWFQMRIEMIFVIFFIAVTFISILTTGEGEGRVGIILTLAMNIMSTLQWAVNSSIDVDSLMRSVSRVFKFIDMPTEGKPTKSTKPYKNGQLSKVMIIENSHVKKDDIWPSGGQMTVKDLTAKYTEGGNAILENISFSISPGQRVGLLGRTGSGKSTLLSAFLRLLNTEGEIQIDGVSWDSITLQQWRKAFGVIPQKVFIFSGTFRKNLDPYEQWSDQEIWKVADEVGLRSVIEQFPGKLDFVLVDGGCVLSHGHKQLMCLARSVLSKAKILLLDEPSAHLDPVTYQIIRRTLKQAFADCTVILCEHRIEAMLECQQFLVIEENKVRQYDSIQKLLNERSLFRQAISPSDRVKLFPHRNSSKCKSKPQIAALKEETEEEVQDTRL
Kind of assay: Membrane potential optical assay (FRET voltage-sensor dyes, VIPR), identification of potentiator compounds. It counts as cell-based. Conditions: Table 3; assay not given. The gist of the method:
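NIH3T3 mouse fibroblasts stably expressing ΔF508-CFTR, cultured 24 h at 27 °C, were loaded with FRET voltage dyes CC2-DMPE and DiSBAC2(3). Double-addition format: first addition of Cl⁻-free (gluconate) medium with or without compound; membrane-potential change read as fluorescence on VIPR II.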
On to `CCCc1ccc(NC(C)=O)cc1NC(=O)c1c[nH]c2ccccc2c1=O` [Compound 232, N-(5-acetylamino-2-propyl-phenyl)-4-oxo-1H-quinoline-3-carboxamide], for which the EC50 fell in the range of 10 to 25 µM.
With `CC(C)c1ccc(NC(=O)c2c[nH]c3ccccc3c2=O)cc1` [Compound 425, N-(4-isopropylphenyl)-4-oxo-1H-quinoline-3-carboxamide], the 50% effective concentration (EC50) was under 10 µM.

The same assay, now with this note: Table 3; assay not given; read-out: % Activity (% Efficacy, relative efficacy).
For the compound `N#Cc1ccc(-c2ccccc2NC(=O)c2c[nH]c3ccccc3c2=O)s1` [Compound 93, N-[2-(5-cyano-2-thienyl)phenyl]-4-oxo-1H-quinoline-3-carboxamide], the Emax is 25 to 100%.
Turning to `CCCc1ccc(NC(C)=O)cc1NC(=O)c1c[nH]c2ccccc2c1=O` [Compound 232, N-(5-acetylamino-2-propyl-phenyl)-4-oxo-1H-quinoline-3-carboxamide], the Emax lay within 25 to 100%.
For `CCc1ccc(NC(=O)c2c[nH]c3ccccc3c2=O)cc1NC(C)=O` [Compound 149, N-(3-acetylamino-4-ethyl-phenyl)-4-oxo-1H-quinoline-3-carboxamide], the Emax is 25 to 100%.
Consider `C[S+]([O-])c1ccc(-c2ccccc2NC(=O)c2c[nH]c3ccccc3c2=O)cc1` (stereo not drawn) [Compound 134, N-[2-(4-methylsulfinylphenyl)phenyl]-4-oxo-1H-quinoline-3-carboxamide], for which the Emax lay within 25 to 100%.
As for `O=C(Nc1cccc(C(F)(F)F)c1)c1c[nH]c2ccccc2c1=O` [Compound 164, 4-oxo-N-[3-(trifluoromethyl)phenyl]-1H-quinoline-3-carboxamide], the Emax is 25 to 100%.
`CC1=NN(c2cccc(NC(=O)c3c[nH]c4ccccc4c3=O)c2)C(=O)C1` [Compound 212, N-[3-(3-methyl-5-oxo-1,4-dihydropyrazol-1-yl)phenyl]-4-oxo-1H-quinoline-3-carboxamide]: the Emax was under 25%.
For the compound `COc1ccc(NC(=O)c2c[nH]c3ccccc3c2=O)cc1` [Compound 439, N-(4-methoxyphenyl)-4-oxo-1H-quinoline-3-carboxamide], the Emax lay within 25 to 100%.
For `O=C(Nc1ccc2c(c1)NCCCC2)c1c[nH]c2ccccc2c1=O` [Compound 10, 1,4-dihydro-N-(2,3,4,5-tetrahydro-1H-benzo[b]azepin-8-yl)-4-oxoquinoline-3-carboxamide], the Emax lay in the range of 25 to 100%.
Regarding `Cc1cc(C(C)(C)C)c(O)cc1NC(=O)c1c[nH]c2ccccc2c1=O` [Compound 518, N-(5-hydroxy-2-methyl-4-tert-butyl-phenyl)-4-oxo-1H-quinoline-3-carboxamide], the Emax was in the range of 25 to 100%.
Same read-out and setting: with `CSc1ccc(-c2ccccc2NC(=O)c2c[nH]c3ccccc3c2=O)cc1` [Compound 223, N-[2-(4-methylsulfanylphenyl)phenyl]-4-oxo-1H-quinoline-3-carboxamide] the figure was 25 to 100%.
For the compound `CCCc1ccc(NC(=O)c2c[nH]c3ccccc3c2=O)cc1NC(=O)OC` [Compound 221, [5-[(4-oxo-1H-quinolin-3-yl)carbonylamino]-2-propyl-phenyl]aminoformic acid methyl ester], the Emax lay within 25 to 100%.
On the same count and under the same terms, with `Cc1cccc2c(=O)c(C(=O)Nc3cc(O)c(C(C)(C)C)cc3F)c[nH]c12` [Compound 625, N-(2-fluoro-5-hydroxy-4-tert-butyl-phenyl)-8-methyl-4-oxo-1H-quinoline-3-carboxamide] the figure was under 25%; with `O=C(Nc1ccc2oc(-c3ccccc3)nc2c1)c1c[nH]c2ccccc2c1=O` [Compound 376, 4-oxo-N-(2-phenylbenzooxazol-5-yl)-1H-quinoline-3-carboxamide], under 25%; with `CC(C)c1ccc(NC(=O)c2c[nH]c3ccccc3c2=O)cc1` [Compound 425, N-(4-isopropylphenyl)-4-oxo-1H-quinoline-3-carboxamide], 25 to 100%.
Take `Cc1cccc(NC(=O)c2c[nH]c3ccccc3c2=O)c1C#N` [Compound 201, N-(2-cyano-3-methyl-phenyl)-4-oxo-1H-quinoline-3-carboxamide]: the Emax is under 25%.
Still for that read-out and setting: with `CN(Cc1ccccc1NC(=O)c1c[nH]c2ccccc2c1=O)C1CCCCC1` [Compound 354, N-[2-[(cyclohexyl-methyl-amino)methyl]phenyl]-4-oxo-1H-quinoline-3-carboxamide] the figure was 25 to 100%.
